Experiments:
Experiment in all cases: Agar disk diffusion, inhibition zone diameter
Assay type in all cases: cell-based
[1] = test system: S. aureus; settings: 25 μg/ml, Nil = No growth
Excerpt: (§1) The agar disk diffusion method was used to investigate the antibacterial activity of the PT-AgNPs against four bacterial strains.

[2] = test system: S. enteritidis; settings: 6.25 μg/ml (by grid column), Nil = No growth
Excerpt: as §1

[3] = test system: E. coli; settings: 25 μg/ml, Nil = No growth
Excerpt: as §1

[4] = test system: B. cereus; settings: 25 μg/ml, Nil = No growth
Excerpt: as §1

Measured: IZD (mm)

O=C(N[C@H](CO)[C@H](O)c1ccc([N+](=O)[O-])cc1)C(Cl)Cl [Chloramphenicol]
Nil: all assays above

Reference: patent US20240269086A1, “PERGULARIA TOMENTOSA SILVER NANOPARTICLES” (KING FAISAL UNIVERSITY, priority 2023, published 2024)
